Reference: patent US7563787B2, “Substituted pyrazole compounds” (Miikana Therapeutics, Inc., priority 2005, dated 2009)

Columns and labels:
HCT-116 cell growth = experiment: Whole Cell Cytotoxicity Assay: Sulforhodamine B; assay type: cell-based, Human; details: Homo sapiens, HCT-116; 100 μM compound; 96 hours; SRB staining
Procedure: Human tumor-derived cell lines, HCT116 or MCF7 (ATCC) were plated in a 96 well plate in DMEM containing 10% fetal bovine serum and 2 mM L-glutamine at a density of 500 HCT116 cells or 1,000 MCF7 cells per well and incubated at 37° C., 5% CO2, for 24 hours prior to the addition of experimental compounds. Compounds were added using the dilution series indicated to duplicate plates and the cells were incubated in media plus compound for 96 hours. An additional plate was fixed in 10% TCA at the time of the addition of compound to provide a measurement of the cell population at time zero, the time of drug addition. Following the 96 hour incubation, cells were fixed in situ by gently aspirating off the culture media and then adding 50 ul of ice cold 10% TCA per well and incubation at 4° C. for 60 minutes. The plates were washed with tap water five times and allowed to air dry for 5 minute. 50 ul of a 0.4% (w/v) Sulforhodamine B solution in 1% (v/v) acetic acid was added per well and the cells were incubated for 30 minutes at room temperature. Following staining, plates were washed four times with 1% acetic acid to remove any unbound dye and then allowed to air dry for 5 minutes. The stain was solubilized with 100 ul of 10 mM Tris pH 10.5 per well and placed on an orbital rotator for 5 minutes. The absorbance was read at 570 nm. Percentage growth was calculated using the absorbance readings from the time zero plate (Tz) and the dilution series plate […] which included a column of cells grown in media without compound as a control (C) using the formulas: [(Ti−Tz)/(C−Tz)]×100 for concentrations for which Ti>/=Tz [(Ti−Tz)/Tz]×100 for concentrations for which Ti<Tz.
Three dose response parameters were calculated for each experimental agent. Growth inhibition of 50% (GI50) was calculated from [(Ti−Tz)/(C−Tz)]×100=50, which was the drug concentration resulting in a 50% reduction in the net protein increase (as measured by SRB staining) in control cells during the drug incubation. The drug concentration resulting in total growth inhibition (TGI) was calculated from Ti=Tz. The LC50 (concentration of drug resulting in a 50% reduction in the measured protein at the end of the drug treatment as compared to that at the beginning) indicating a net loss of cells following treatment was calculated from [(Ti−Tz)/Tz]×100=−50. Values are calculated for each of these three parameters if the level of activity was reached; however, if the effect was not reached or was exceeded, the value for that parameter is expressed as greater or less than the maximum or minimum concentration tested.

ABL2 (Arg) = target: T1, ABL2 (Arg) (Homo sapiens, UniProt P42684); experiment: Kinase Selectivity Assay; assay type: biochemical; details: read-out: Percent Inhibition at 1 μM; note: ATP at apparent Km or 100 µM
T1 construct: purchased Invitrogen, Carlsbad, Calif
Procedure: (§1) Compounds were assayed for inhibitory activity against a panel of different kinase enzymes at a concentration of 1 μM. Where appropriate, full-length enzymes or catalytically active fragments, with N-terminal or C-terminal His- or GST-tags, were used (Invitrogen, Carlsbad, Calif.). Test compounds were initially diluted to 100× test concentration in 100% DMSO. This 100× concentration was then diluted to a 4× working concentration in Kinase Buffer (50 mM HEPES pH 7.5, 0.01% Brij-35, 10 mM MgCl2, 1 mM EGTA) and 2.5 μL was then added to a low volume NBS, 384-well plate (Corning, Corning, N.Y.). Five μL of a 2× peptide/kinase mixture (Invitrogen, Carlsbad, Calif.), as appropriate (listed in Table 3), was then added and the reaction was then initiated by addition of 2.5 μL of a 4× working concentration of ATP in Kinase Buffer.

AKT1 (PKB alpha) = target: T2, AKT1 (PKB alpha) (Homo sapiens, UniProt P31749); experiment: Kinase Selectivity Assay; assay type: biochemical; details: read-out: Percent Inhibition at 1 μM; note: ATP at apparent Km or 100 µM
T2 construct: purchased Invitrogen, Carlsbad, Calif
Procedure: as §1

BLK = target: T3, BLK (Homo sapiens, UniProt P51451); experiment: Kinase Selectivity Assay; assay type: biochemical; details: read-out: Percent Inhibition at 1 μM; note: ATP at apparent Km or 100 µM
T3 construct: purchased Invitrogen, Carlsbad, Calif
Procedure: as §1

BMX = target: T4, BMX (Homo sapiens, UniProt P51813); experiment: Kinase Selectivity Assay; assay type: biochemical; details: read-out: Percent Inhibition at 1 μM; note: ATP at apparent Km or 100 µM
T4 construct: purchased Invitrogen, Carlsbad, Calif
Procedure: as §1

BTK = target: T5, BTK (Homo sapiens, UniProt Q06187); experiment: Kinase Selectivity Assay; assay type: biochemical; details: read-out: Percent Inhibition at 1 μM; note: ATP at apparent Km or 100 µM
T5 construct: purchased Invitrogen, Carlsbad, Calif
Procedure: as §1

CSF1R (FMS) = target: T6, CSF1R (FMS) (Homo sapiens, UniProt P07333); experiment: Kinase Selectivity Assay; assay type: biochemical; details: read-out: Percent Inhibition at 1 μM; note: ATP at apparent Km or 100 µM
T6 construct: purchased Invitrogen, Carlsbad, Calif
Procedure: as §1

DAPK3 (ZIPK) = target: T7, DAPK3 (ZIPK) (Homo sapiens, UniProt O43293); experiment: Kinase Selectivity Assay; assay type: biochemical; details: read-out: Percent Inhibition at 1 μM; note: ATP at apparent Km or 100 µM
T7 construct: purchased Invitrogen, Carlsbad, Calif
Procedure: as §1

FLT3 D835Y = target: T8, FLT3 D835Y (Homo sapiens, UniProt P36888, D835Y); experiment: Kinase Selectivity Assay; assay type: biochemical; details: read-out: Percent Inhibition at 1 μM; note: ATP at apparent Km or 100 µM
T8 construct: full-length enzymes or catalytically active fragments; purchased Invitrogen
Procedure: as §1

FLT4 (VEGFR3) = target: T9, FLT4 (VEGFR3) (Homo sapiens, UniProt P35916); experiment: Kinase Selectivity Assay; assay type: biochemical; details: read-out: Percent Inhibition at 1 μM; note: ATP at apparent Km or 100 µM
T9 construct: full-length enzymes or catalytically active fragments; purchased Invitrogen
Procedure: as §1

FYN = target: T10, FYN (Homo sapiens, UniProt P06241); experiment: Kinase Selectivity Assay; assay type: biochemical; details: read-out: Percent Inhibition at 1 μM; note: ATP at apparent Km or 100 µM
T10 construct: full-length enzymes or catalytically active fragments; purchased Invitrogen
Procedure: as §1

GSK3A (GSK3 alpha) = target: T11, GSK3A (GSK3 alpha) (Homo sapiens, UniProt P49840); experiment: Kinase Selectivity Assay; assay type: biochemical; details: read-out: Percent Inhibition at 1 μM; note: ATP at apparent Km or 100 µM
T11 construct: full-length enzymes or catalytically active fragments; purchased Invitrogen
Procedure: as §1

GSK3B (GSK3 beta) = target: T12, GSK3B (GSK3 beta) (Homo sapiens, UniProt P49841); experiment: Kinase Selectivity Assay; assay type: biochemical; details: read-out: Percent Inhibition at 1 μM; note: ATP at apparent Km or 100 µM
T12 construct: full-length enzymes or catalytically active fragments; purchased Invitrogen
Procedure: as §1

JAK2 = target: T13, JAK2 (Homo sapiens, UniProt O60674); experiment: Kinase Selectivity Assay; assay type: biochemical; details: read-out: Percent Inhibition at 1 μM; note: ATP at apparent Km or 100 µM
T13 construct: full-length enzymes or catalytically active fragments; purchased Invitrogen
Procedure: as §1

KIT = target: T14, KIT (Homo sapiens, UniProt P10721); experiment: Kinase Selectivity Assay; assay type: biochemical; details: read-out: Percent Inhibition at 1 μM; note: ATP at apparent Km or 100 µM
T14 construct: full-length enzymes or catalytically active fragments; purchased Invitrogen
Procedure: as §1

LYN A = target: T15, LYN A (Homo sapiens, UniProt P07948); experiment: Kinase Selectivity Assay; assay type: biochemical; details: read-out: Percent Inhibition at 1 μM; note: ATP at apparent Km or 100 µM
T15 construct: full-length enzymes or catalytically active fragments; purchased Invitrogen
Procedure: as §1

NTRK1 (TRKA) = target: T16, NTRK1 (TRKA) (Homo sapiens, UniProt P04629); experiment: Kinase Selectivity Assay; assay type: biochemical; details: read-out: Percent Inhibition at 1 μM; note: ATP at apparent Km or 100 µM
T16 construct: full-length enzymes or catalytically active fragments; purchased Invitrogen
Procedure: as §1

PDGFRA (PDGFR alpha) = target: T17, PDGFRA (PDGFR alpha) (Homo sapiens, UniProt P16234); experiment: Kinase Selectivity Assay; assay type: biochemical; details: read-out: Percent Inhibition at 1 μM; note: ATP at apparent Km or 100 µM
T17 construct: full-length enzymes or catalytically active fragments; purchased Invitrogen
Procedure: as §1

PDGFRA D842V = target: T18, PDGFRA D842V (Homo sapiens, UniProt P16234, D842V); experiment: Kinase Selectivity Assay; assay type: biochemical; details: read-out: Percent Inhibition at 1 μM; note: ATP at apparent Km or 100 µM
T18 construct: full-length enzymes or catalytically active fragments; purchased Invitrogen
Procedure: as §1

RET = target: T19, RET (Homo sapiens, UniProt P07949); experiment: Kinase Selectivity Assay; assay type: biochemical; details: read-out: Percent Inhibition at 1 μM; note: ATP at apparent Km or 100 µM
T19 construct: full-length enzymes or catalytically active fragments; purchased Invitrogen
Procedure: as §1

STK6 (Aurora A) = target: T20, STK6 (Aurora A) (Homo sapiens, UniProt O14965); experiment: Kinase Selectivity Assay; assay type: biochemical; details: read-out: Percent Inhibition at 1 μM; note: ATP at apparent Km or 100 µM
T20 construct: full-length enzymes or catalytically active fragments; purchased Invitrogen
Procedure: as §1

TBK1 = target: T21, TBK1 (Homo sapiens, UniProt Q9UHD2); experiment: Kinase Selectivity Assay; assay type: biochemical; details: read-out: Percent Inhibition at 1 μM; note: ATP at apparent Km or 100 µM
T21 construct: purchased Invitrogen, Carlsbad, Calif
Procedure: as §1

T1 sequence (P42684 whole entry): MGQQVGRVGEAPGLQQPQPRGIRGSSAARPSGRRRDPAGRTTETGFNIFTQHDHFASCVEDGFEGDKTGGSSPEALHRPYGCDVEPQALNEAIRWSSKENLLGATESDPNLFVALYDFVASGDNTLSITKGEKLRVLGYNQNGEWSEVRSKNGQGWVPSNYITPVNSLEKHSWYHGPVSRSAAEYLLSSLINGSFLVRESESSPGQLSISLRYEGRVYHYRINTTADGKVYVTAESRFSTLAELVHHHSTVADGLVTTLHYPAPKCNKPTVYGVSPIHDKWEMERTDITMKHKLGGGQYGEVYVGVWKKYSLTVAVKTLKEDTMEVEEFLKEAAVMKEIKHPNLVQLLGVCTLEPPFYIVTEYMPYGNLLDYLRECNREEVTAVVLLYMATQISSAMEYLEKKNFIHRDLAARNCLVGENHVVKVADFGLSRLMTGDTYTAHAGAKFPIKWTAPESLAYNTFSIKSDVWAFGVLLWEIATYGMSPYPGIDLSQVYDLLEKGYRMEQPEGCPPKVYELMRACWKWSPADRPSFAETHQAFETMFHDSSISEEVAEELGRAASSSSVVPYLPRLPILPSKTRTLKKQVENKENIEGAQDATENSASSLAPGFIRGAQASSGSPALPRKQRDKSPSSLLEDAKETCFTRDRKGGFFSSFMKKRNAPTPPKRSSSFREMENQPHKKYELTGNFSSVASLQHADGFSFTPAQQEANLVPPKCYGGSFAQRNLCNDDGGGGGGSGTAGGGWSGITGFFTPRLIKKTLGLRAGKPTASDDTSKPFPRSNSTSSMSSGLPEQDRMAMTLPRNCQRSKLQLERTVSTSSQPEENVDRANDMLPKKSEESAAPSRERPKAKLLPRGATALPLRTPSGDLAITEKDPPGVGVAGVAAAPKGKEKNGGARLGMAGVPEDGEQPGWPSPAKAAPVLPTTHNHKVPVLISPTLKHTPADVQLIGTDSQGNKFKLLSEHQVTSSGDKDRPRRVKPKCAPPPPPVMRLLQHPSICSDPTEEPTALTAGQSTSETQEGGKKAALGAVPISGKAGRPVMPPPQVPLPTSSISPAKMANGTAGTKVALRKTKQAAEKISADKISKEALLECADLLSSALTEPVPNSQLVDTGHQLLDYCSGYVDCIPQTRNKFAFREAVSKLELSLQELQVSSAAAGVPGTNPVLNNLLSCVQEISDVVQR
T19 sequence (P07949 29-1114): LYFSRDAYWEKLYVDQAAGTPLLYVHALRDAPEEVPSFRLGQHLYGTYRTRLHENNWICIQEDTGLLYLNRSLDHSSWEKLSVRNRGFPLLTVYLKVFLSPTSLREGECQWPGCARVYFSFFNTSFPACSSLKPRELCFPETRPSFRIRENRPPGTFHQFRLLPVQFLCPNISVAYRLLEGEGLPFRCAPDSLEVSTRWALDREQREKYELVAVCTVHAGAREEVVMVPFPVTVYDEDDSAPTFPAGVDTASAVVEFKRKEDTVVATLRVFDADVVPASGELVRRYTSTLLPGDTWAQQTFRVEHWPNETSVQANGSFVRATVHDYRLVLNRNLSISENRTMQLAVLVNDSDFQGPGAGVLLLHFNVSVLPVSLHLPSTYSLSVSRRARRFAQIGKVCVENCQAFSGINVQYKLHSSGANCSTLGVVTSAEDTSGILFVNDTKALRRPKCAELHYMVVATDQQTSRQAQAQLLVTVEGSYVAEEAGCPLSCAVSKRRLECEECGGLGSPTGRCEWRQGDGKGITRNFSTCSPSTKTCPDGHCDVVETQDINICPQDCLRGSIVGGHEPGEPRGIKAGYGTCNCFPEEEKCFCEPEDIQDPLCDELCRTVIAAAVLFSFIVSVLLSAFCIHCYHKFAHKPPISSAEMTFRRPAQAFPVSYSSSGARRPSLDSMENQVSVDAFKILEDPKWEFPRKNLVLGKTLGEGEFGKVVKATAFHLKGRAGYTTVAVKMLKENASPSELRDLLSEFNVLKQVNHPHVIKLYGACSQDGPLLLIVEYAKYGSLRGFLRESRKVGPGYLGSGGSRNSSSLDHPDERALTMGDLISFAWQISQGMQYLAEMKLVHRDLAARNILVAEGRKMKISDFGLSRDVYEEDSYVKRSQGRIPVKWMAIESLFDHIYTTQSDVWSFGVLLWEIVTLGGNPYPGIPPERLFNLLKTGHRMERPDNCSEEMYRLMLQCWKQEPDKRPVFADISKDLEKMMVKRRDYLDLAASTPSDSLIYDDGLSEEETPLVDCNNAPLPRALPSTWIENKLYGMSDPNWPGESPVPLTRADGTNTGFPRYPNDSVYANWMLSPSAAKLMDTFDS
T21 sequence (Q9UHD2 whole entry): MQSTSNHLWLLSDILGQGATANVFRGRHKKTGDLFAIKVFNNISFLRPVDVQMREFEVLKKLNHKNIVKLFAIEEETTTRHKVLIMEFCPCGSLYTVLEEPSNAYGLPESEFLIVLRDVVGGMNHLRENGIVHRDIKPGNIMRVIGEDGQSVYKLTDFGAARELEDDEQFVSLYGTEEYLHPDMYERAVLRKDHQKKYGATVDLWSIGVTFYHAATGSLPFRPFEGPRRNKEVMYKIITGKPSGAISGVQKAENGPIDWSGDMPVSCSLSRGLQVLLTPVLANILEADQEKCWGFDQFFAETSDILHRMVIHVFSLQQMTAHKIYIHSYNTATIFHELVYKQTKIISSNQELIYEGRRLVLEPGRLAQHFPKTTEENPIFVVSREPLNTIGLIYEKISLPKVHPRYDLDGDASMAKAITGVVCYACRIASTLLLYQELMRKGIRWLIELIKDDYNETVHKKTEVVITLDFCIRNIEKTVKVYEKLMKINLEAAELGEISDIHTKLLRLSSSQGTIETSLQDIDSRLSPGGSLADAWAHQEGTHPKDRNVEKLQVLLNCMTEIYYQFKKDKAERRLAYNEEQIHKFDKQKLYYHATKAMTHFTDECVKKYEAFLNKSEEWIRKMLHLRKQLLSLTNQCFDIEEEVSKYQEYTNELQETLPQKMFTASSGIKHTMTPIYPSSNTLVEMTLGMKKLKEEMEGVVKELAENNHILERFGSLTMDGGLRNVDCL
T20 sequence (O14965 whole entry, the tested form may be a part): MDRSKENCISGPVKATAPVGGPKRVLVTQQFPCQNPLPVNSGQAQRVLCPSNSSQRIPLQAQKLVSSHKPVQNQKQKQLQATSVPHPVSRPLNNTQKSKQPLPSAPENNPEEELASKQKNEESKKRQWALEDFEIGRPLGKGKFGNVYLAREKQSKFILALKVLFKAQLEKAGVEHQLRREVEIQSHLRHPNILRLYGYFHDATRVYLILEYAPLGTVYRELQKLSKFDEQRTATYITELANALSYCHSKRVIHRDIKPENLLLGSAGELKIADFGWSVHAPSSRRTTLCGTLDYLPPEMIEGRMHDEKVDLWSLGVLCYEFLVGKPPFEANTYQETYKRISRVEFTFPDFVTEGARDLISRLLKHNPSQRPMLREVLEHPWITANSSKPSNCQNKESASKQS
T15 sequence (P07948 whole entry, the tested form may be a part): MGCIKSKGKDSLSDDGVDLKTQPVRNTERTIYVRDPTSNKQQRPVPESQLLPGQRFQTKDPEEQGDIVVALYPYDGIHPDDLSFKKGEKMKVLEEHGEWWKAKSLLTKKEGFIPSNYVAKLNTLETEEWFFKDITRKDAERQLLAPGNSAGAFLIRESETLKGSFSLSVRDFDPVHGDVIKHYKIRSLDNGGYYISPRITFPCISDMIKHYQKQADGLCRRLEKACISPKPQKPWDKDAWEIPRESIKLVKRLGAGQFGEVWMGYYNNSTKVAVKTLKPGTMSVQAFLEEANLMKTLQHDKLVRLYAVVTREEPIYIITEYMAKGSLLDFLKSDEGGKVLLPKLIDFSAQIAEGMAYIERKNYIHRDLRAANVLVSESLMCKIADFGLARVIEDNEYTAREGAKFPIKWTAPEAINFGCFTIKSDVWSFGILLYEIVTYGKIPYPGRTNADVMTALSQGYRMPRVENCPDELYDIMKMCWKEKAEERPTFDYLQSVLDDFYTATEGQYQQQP
T7 sequence (O43293 whole entry): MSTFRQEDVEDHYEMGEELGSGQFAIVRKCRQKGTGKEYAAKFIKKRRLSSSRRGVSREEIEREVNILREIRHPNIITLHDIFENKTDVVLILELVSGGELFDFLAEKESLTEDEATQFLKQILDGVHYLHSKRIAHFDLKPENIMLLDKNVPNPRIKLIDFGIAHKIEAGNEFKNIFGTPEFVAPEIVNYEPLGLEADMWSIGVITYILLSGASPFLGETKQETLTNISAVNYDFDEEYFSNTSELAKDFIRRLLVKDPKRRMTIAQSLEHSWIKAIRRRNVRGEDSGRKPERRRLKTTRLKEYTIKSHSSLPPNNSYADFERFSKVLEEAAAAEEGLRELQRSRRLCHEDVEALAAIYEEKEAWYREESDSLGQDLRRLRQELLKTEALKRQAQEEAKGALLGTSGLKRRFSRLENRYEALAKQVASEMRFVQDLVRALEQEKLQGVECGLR
T5 sequence (Q06187 whole entry): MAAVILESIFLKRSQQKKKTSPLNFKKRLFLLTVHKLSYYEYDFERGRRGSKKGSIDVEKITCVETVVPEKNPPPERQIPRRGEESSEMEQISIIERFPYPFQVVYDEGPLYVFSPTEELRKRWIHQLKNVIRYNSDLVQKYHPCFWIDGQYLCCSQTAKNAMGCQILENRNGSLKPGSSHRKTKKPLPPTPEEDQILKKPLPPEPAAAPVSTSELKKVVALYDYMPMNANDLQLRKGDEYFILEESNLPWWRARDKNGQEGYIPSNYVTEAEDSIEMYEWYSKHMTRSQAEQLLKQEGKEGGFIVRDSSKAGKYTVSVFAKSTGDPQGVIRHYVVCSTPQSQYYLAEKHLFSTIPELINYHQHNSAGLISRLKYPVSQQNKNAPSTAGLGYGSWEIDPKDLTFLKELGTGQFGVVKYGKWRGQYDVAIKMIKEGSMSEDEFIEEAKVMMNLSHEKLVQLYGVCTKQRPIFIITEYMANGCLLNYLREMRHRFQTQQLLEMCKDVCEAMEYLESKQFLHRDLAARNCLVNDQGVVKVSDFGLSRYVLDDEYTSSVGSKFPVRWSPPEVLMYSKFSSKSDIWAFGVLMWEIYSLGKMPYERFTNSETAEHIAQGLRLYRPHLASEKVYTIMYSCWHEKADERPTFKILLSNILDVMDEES

| Compound | inhibition at 100 µM (HCT-116 cell growth) [%] | inhibition at 1 µM (ABL2 (Arg)) [%] | inhibition at 1 µM (AKT1 (PKB alpha)) [%] | inhibition at 1 µM (BLK) [%] | inhibition at 1 µM (BMX) [%] | inhibition at 1 µM (BTK) [%] | inhibition at 1 µM (CSF1R (FMS)) [%] | inhibition at 1 µM (DAPK3 (ZIPK)) [%] | inhibition at 1 µM (FLT3 D835Y) [%] | inhibition at 1 µM (FLT4 (VEGFR3)) [%] | inhibition at 1 µM (FYN) [%] | inhibition at 1 µM (GSK3A (GSK3 alpha)) [%] | inhibition at 1 µM (GSK3B (GSK3 beta)) [%] | inhibition at 1 µM (JAK2) [%] | inhibition at 1 µM (KIT) [%] | inhibition at 1 µM (LYN A) [%] | inhibition at 1 µM (NTRK1 (TRKA)) [%] | inhibition at 1 µM (PDGFRA (PDGFR alpha)) [%] | inhibition at 1 µM (PDGFRA D842V) [%] | inhibition at 1 µM (RET) [%] | further results |
| --- | --- | --- | --- | --- | --- | --- | --- | --- | --- | --- | --- | --- | --- | --- | --- | --- | --- | --- | --- | --- | --- |
| Cc1cc(Nc2nc(/C=C/c3ccccc3)nc(N3CCN(C)CC3)c2N)[nH]n1 [Example 10, 6-(4-methylpiperazin-1-yl)-N-(3-methyl-1H-pyrazol-5-yl)-2-[(E)-2-phenylvinyl]pyrimidin-4,5-diamine] | 99 | 32 | 9 | 67 | 19 | 28 | 80 | 93 | 80 | 87 | 50 | 38 | 26 | 61 | 39 | 63 | 92 | 58 | 9 | 95 | inhibition at 1 µM (STK6 (Aurora A)): 83%; inhibition at 1 µM (TBK1): 73% |
| Cc1cc(Nc2cc(N3CCN(C)CC3)nc(/C=C/c3ccccc3)n2)n[nH]1 [Example 31, 6-(4-methylpiperazin-1-yl)-N-(3-methyl-1H-pyrazol-5-yl)-2-[(E)-2-phenylvinyl]pyrimidin-4-amine] | 99 | 74 | 5 | 90 | 61 | 63 | 97 | 68 | 98 | 97 | 89 | 36 | 28 | 91 | 75 | 84 | 96 | 83 | 24 | 98 | inhibition at 1 µM (STK6 (Aurora A)): 96%; inhibition at 1 µM (TBK1): 80% |
